The source made the active and inactive calls. The rule behind the calls is not given here.
Legend:
Escherichia coli [1] = test: Antibacterial activity against Escherichia coli UTI89 assessed as inhibition of biofilm formation after 24 hrs; format: functional, organism-based; conditions: UTI89, 24 h
Escherichia coli [2] = test: Antibacterial activity against Escherichia coli UTI89 assessed as inhibition of biofilm formation at 200 uM after 24 hrs; format: functional; conditions: for inhibition at 200 µM: UTI89, 24 h
HeLa = test: Cytotoxicity against human HeLa cells after 24 hrs by calcein AM based spectrophotometric analysis; format: cell-based
Escherichia coli [3] = test: Antibacterial activity against Escherichia coli UTI89 assessed as number of wells with agglutination by hemagglutinination assay in presence of 500 uM pilicide; format: functional

Row | Structure (SMILES) | EC50 (Escherichia coli [1]) | inhibition at 200 µM (Escherichia coli [2]) | Activity (HeLa) | inhibition (Escherichia coli [2]) | Activity (Escherichia coli [3])
1 | O=C(O)[C@@H]1CSc2c(-c3cccc(C(F)(F)F)c3)c(Cc3cccc(OCc4ccc(F)cc4)c3)cc(=O)n21 | 3 µM | 75% | Non-toxic | – | –
2 | O=C(O)[C@@H]1CSc2c(C3CC3)c(CN3CCc4ccccc4C3)cc(=O)n21 | – | – | – | inactive | –
3 | O=C(O)[C@@H]1CSc2c(-c3cccc(C(F)(F)F)c3)c(COc3ccccc3)cc(=O)n21 | 21 µM | 80% | Non-toxic | – | –
4 | O=C(NCc1cc(=O)n2c(c1C1CC1)SC[C@H]2C(=O)O)c1ccccc1 | – | – | – | inactive | –
5 | O=C(O)[C@@H]1CSc2c(-c3cccc(C(F)(F)F)c3)c(COc3cccc4ccccc34)cc(=O)n21 | 37 µM | 72% | Non-toxic | – | 5
6 | O=C(O)[C@@H]1CSc2c(C3CC3)c(Cc3cccc4ccccc34)cc(=O)n21 | 189 µM | 54% | Non-toxic | – | 7
7 | O=C(O)[C@@H]1CSc2c(-c3cccc(C(F)(F)F)c3)c(CNS(=O)(=O)c3ccccc3)cc(=O)n21 | – | 48% | – | – | –
8 | O=C(O)[C@@H]1CSc2c(-c3cccc(C(F)(F)F)c3)c(CN3CCc4ccccc4C3)cc(=O)n21 | 130 µM | 84% | – | – | –
9 | O=C(O)[C@@H]1CSc2c(C3CC3)c(CNS(=O)(=O)c3cccc4ccccc34)cc(=O)n21 | – | – | – | inactive | –
10 | O=C(NCc1cc(=O)n2c(c1-c1cccc(C(F)(F)F)c1)SC[C@H]2C(=O)O)c1ccccc1 | – | – | – | inactive | –
11 | O=C(O)[C@@H]1CSc2c(C3CC3)c(CN3CCCCC3)cc(=O)n21 | – | – | – | inactive | –
12 | O=C(O)[C@@H]1CSc2c(-c3cccc(C(F)(F)F)c3)c(Cc3cccc4ccccc34)cc(=O)n21 | 17 µM | 92% | Non-toxic | – | 5
13 | O=C(O)[C@@H]1CSc2c(-c3cccc(C(F)(F)F)c3)c(CN3CCCCC3)cc(=O)n21 | – | 30% | – | – | –
14 | O=C(NCc1cc(=O)n2c(c1C1CC1)SC[C@H]2C(=O)O)c1cccc2ccccc12 | – | – | – | inactive | –
15 | O=C(NCc1cc(=O)n2c(c1-c1cccc(C(F)(F)F)c1)SC[C@H]2C(=O)O)c1cccc2ccccc12 | 130 µM | 65% | – | – | –
16 | COc1ccc2cc(Cc3cc(=O)n4c(c3C3CC3)SC[C@H]4C(=O)O)ccc2c1 | – | – | – | inactive | –
17 | COc1ccc2cc(Cc3cc(=O)n4c(c3-c3cccc(C(F)(F)F)c3)SC[C@H]4C(=O)O)ccc2c1 | 9 µM | 93% | Non-toxic | – | 5.5
18 | O=C(O)[C@@H]1CSc2c(C3CC3)c(Cc3cccc(OCc4ccc(F)cc4)c3)cc(=O)n21 | 43 µM | 76% | Non-toxic | – | –
19 | O=C(O)[C@@H]1CSc2c(-c3cccc(C(F)(F)F)c3)c(CN3CCOCC3)cc(=O)n21 | – | – | – | inactive | –
20 | O=C(O)[C@@H]1CSc2c(C3CC3)c(COc3ccccc3)cc(=O)n21 | – | 43% | – | – | –
21 | O=C(O)[C@@H]1CSc2c(C3CC3)c(COc3cccc4ccccc34)cc(=O)n21 | 32 µM | 96% | Non-toxic | – | 5.5
22 | O=C(O)[C@@H]1CSc2c(-c3cccc(C(F)(F)F)c3)c(CNS(=O)(=O)c3cccc4ccccc34)cc(=O)n21 | 38 µM | 91% | Non-toxic | – | –
23 | O=C(O)[C@@H]1CSc2c(C3CC3)c(Cc3ccc4[nH]ccc4c3)cc(=O)n21 | – | 37% | – | – | –
24 | O=C(O)[C@@H]1CSc2c(C3CC3)c(CNS(=O)(=O)c3ccccc3)cc(=O)n21 | – | – | – | inactive | –
25 | O=C(O)[C@@H]1CSc2c(C3CC3)c(CN3CCOCC3)cc(=O)n21 | – | – | – | inactive | –
26 | O=C(O)[C@@H]1CSc2c(-c3cccc(C(F)(F)F)c3)c(Cc3ccc4[nH]ccc4c3)cc(=O)n21 | 30 µM | 97% | Non-toxic | – | 5

From ChEMBL document CHEMBL1759904, “Synthesis and application of a bromomethyl substituted scaffold to be used for efficient optimization of anti-virulence activity” (Eur J Med Chem, 2011)
